Test results from ChEMBL document CHEMBL1201862, “PubChem BioAssay data set” (2004).
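A five-concentration, 48-hour dose response in 96-well plates underlies each endpoint, interpolated linearly between surrounding concentrations. The concentration for 50% growth inhibition is given as GI50.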 Calls of active or inactive are those of the source. Rule as the data show it: active = GI50 up to about 1.1 µM and inactive = higher.

Columns and labels:
Experiment in all cases: growth of human tumour cells (NCI), 48 h
OVCAR-8 = test system: OVCAR-8
RXF 393 = test system: RXF 393
HCC 2998 = test system: HCC 2998
SR = test system: SR
OVCAR-5 = test system: OVCAR-5
TK-10 = test system: TK-10
M14 = test system: M14
DMS-114 = test system: DMS-114
SNB-75 = test system: SNB-75
HCT-15 = test system: HCT-15
ACHN = test system: ACHN
IGROV-1 = test system: IGROV-1
MOLT-4 = test system: MOLT-4
SN12C = test system: SN12C
UO-31 = test system: UO-31
SK-MEL-28 = test system: SK-MEL-28
SK-MEL-2 = test system: SK-MEL-2
HL-60 = test system: HL-60
NCI-H226 = test system: NCI-H226
XF498 = test system: XF498
Malme-3M = test system: Malme-3M
HOP-62 = test system: HOP-62
HOP-92 = test system: HOP-92
M19-MEL = test system: M19-MEL
SK-OV-3 = test system: SK-OV-3
DMS-273 = test system: DMS-273
NCI-H522 = test system: NCI-H522
SW-620 = test system: SW-620
LOX IMVI = test system: LOX IMVI
CCRF-CEM = test system: CCRF-CEM
SF-539 = test system: SF-539
CAKI-1 = test system: CAKI-1
SNB-19 = test system: SNB-19
K562 = test system: K562
OVCAR-3 = test system: OVCAR-3
LXFL 529 = test system: LXFL 529
EKVX = test system: EKVX
HT-29 = test system: HT-29
SF-295 = test system: SF-295
RPMI-8226 = test system: RPMI-8226
DLD-1 = test system: DLD-1
KM-20L2 = test system: KM-20L2
KM12 = test system: KM12
NCI-H460 = test system: NCI-H460
COLO 205 = test system: COLO 205
UACC-62 = test system: UACC-62
OVCAR-4 = test system: OVCAR-4
SF-268 = test system: SF-268
HCT-116 = test system: HCT-116
A549 = test system: A549
A498 = test system: A498
UACC-257 = test system: UACC-257
NCI-H23 = test system: NCI-H23
786-0 = test system: 786-0
U-251 = test system: U-251
SNB-78 = test system: SNB-78
DU-145 = test system: DU-145
MDA-MB-231 = test system: MDA-MB-231
MDA-N = test system: MDA-N
Hs-578T = test system: Hs-578T
NCI/ADR-RES = test system: NCI/ADR-RES
BT-549 = test system: BT-549
PC-3 = test system: PC-3
T47D = test system: T47D
MDA-MB-435 = test system: MDA-MB-435
SK-MEL-5 = test system: SK-MEL-5
MCF7 = test system: MCF7

In the case of `Cn1nc2ccc3nccc(NCCNCCCl)c3c2n1`, the GI50 (OVCAR-8) was > 100 µM (inactive), the GI50 (RXF 393) was > 100 µM (inactive) and the GI50 (HCC 2998) was > 100 µM (inactive). For the same molecule, the GI50 (SR) was > 100 µM (inactive), the GI50 (OVCAR-5) was > 100 µM (inactive) and the GI50 (TK-10) was > 100 µM (inactive). For the same molecule, the GI50 (M14) was > 100 µM (inactive), the GI50 (DMS-114) was > 100 µM (inactive) and the GI50 (SNB-75) was > 100 µM (inactive). For the same molecule, the GI50 (HCT-15) was over 100 µM, the GI50 (ACHN) was > 100 µM (inactive) and the GI50 (IGROV-1) was > 100 µM (inactive). For the same molecule, the GI50 (MOLT-4) was > 100 µM (inactive), the GI50 (SN12C) was > 100 µM (inactive) and the GI50 (UO-31) was > 100 µM (inactive). For the same molecule, the GI50 (SK-MEL-28) was > 100 µM (inactive), the GI50 (SK-MEL-2) was > 100 µM (inactive) and the GI50 (HL-60) was > 100 µM (inactive). For the same molecule, the GI50 (NCI-H226) was > 100 µM (inactive), the GI50 (XF498) was > 100 µM (inactive) and the GI50 (Malme-3M) was > 100 µM (inactive). The GI50 (HOP-62) was > 100 µM (inactive), the GI50 (HOP-92) was > 100 µM (inactive) and the GI50 (M19-MEL) was > 100 µM (inactive). The GI50 (SK-OV-3) was > 100 µM (inactive), the GI50 (DMS-273) was > 100 µM (inactive) and the GI50 (NCI-H522) was > 100 µM (inactive). For the same molecule, the GI50 (SW-620) was > 100 µM (inactive), the GI50 (LOX IMVI) was > 100 µM (inactive) and the GI50 (CCRF-CEM) was > 100 µM (inactive). For the same molecule, the GI50 (SF-539) was > 100 µM (inactive), the GI50 (CAKI-1) was > 10 µM (inactive) and the GI50 (SNB-19) was > 100 µM (inactive). The GI50 (K562) was > 100 µM (inactive), the GI50 (OVCAR-3) was > 100 µM (inactive) and the GI50 (LXFL 529) was > 100 µM (inactive). For the same molecule, the GI50 (EKVX) was > 100 µM (inactive), the GI50 (HT-29) was > 100 µM (inactive) and the GI50 (SF-295) was > 100 µM (inactive). For the same molecule, the GI50 (RPMI-8226) was > 100 µM (inactive), the GI50 (DLD-1) was > 100 µM (inactive) and the GI50 (KM-20L2) was > 100 µM (inactive). For the same molecule, the GI50 (KM12) was > 100 µM (inactive), the GI50 (NCI-H460) was > 100 µM (inactive) and the GI50 (COLO 205) was > 100 µM (inactive). The GI50 (UACC-62) was > 100 µM (inactive), the GI50 (OVCAR-4) was > 100 µM (inactive) and the GI50 (SF-268) was > 100 µM (inactive). The GI50 (HCT-116) was > 100 µM (inactive) and the GI50 (A549) was > 100 µM (inactive).
For `O=C(Nc1ccc([N+](=O)[O-])cc1[N+](=O)[O-])C(=O)C(C(=O)c1ccc(Cl)c(Cl)c1)C1OC(=O)c2ccccc21` (stereo not drawn), the GI50 (OVCAR-8) was 15.2 µM (inactive), the GI50 (RXF 393) was 11.8 µM (inactive) and the GI50 (HCC 2998) was > 10 µM (inactive). For the same molecule, the GI50 (SR) was 26.5 µM (inactive), the GI50 (OVCAR-5) was 25.8 µM (inactive) and the GI50 (TK-10) was 32.1 µM (inactive). The GI50 (M14) was > 10 µM (inactive), the GI50 (DMS-114) was 18.1 µM (inactive) and the GI50 (SNB-75) was > 100 µM (inactive). The GI50 (A498) was 21.4 µM (inactive), the GI50 (UACC-257) was 22.6 µM (inactive) and the GI50 (HCT-15) was 27.2 µM. The GI50 (ACHN) was 23.3 µM (inactive), the GI50 (IGROV-1) was 22.2 µM (inactive) and the GI50 (MOLT-4) was 14.6 µM (inactive). The GI50 (SN12C) was 24.1 µM (inactive), the GI50 (UO-31) was 26.3 µM (inactive) and the GI50 (SK-MEL-2) was > 10 µM (inactive). For the same molecule, the GI50 (HL-60) was 28.9 µM (inactive), the GI50 (NCI-H226) was 12.4 µM (inactive) and the GI50 (NCI-H23) was 17.3 µM (inactive). For the same molecule, the GI50 (Malme-3M) was 26.3 µM (inactive), the GI50 (HOP-62) was 16.7 µM (inactive) and the GI50 (HOP-92) was 1.26 µM (inactive). The GI50 (786-0) was 18.5 µM (inactive), the GI50 (M19-MEL) was 25.1 µM (inactive) and the GI50 (SK-OV-3) was 23.2 µM (inactive). For the same molecule, the GI50 (DMS-273) was 31 µM (inactive), the GI50 (NCI-H522) was 17.1 µM (inactive) and the GI50 (SW-620) was 20.6 µM (inactive). For the same molecule, the GI50 (LOX IMVI) was 17.5 µM (inactive), the GI50 (CCRF-CEM) was 22.6 µM (inactive) and the GI50 (SF-539) was > 10 µM (inactive). The GI50 (CAKI-1) was 38 µM (inactive), the GI50 (SNB-19) was 18.6 µM (inactive) and the GI50 (K562) was 28.4 µM (inactive). The GI50 (OVCAR-3) was 27.7 µM (inactive), the GI50 (LXFL 529) was 17.1 µM (inactive) and the GI50 (EKVX) was 22.1 µM (inactive). For the same molecule, the GI50 (HT-29) was 25.8 µM (inactive), the GI50 (SF-295) was 17.8 µM (inactive) and the GI50 (RPMI-8226) was 25 µM (inactive). The GI50 (DLD-1) was 19.1 µM (inactive), the GI50 (KM-20L2) was 29.8 µM (inactive) and the GI50 (KM12) was 18.4 µM (inactive). The GI50 (NCI-H460) was > 10 µM (inactive), the GI50 (COLO 205) was 21.6 µM (inactive) and the GI50 (UACC-62) was 16.3 µM (inactive). For the same molecule, the GI50 (OVCAR-4) was 42.9 µM (inactive), the GI50 (SF-268) was 25.3 µM (inactive) and the GI50 (U-251) was 30.3 µM (inactive). The GI50 (HCT-116) was 19.4 µM (inactive), the GI50 (SNB-78) was 21.9 µM (inactive) and the GI50 (A549) was 26.1 µM (inactive).
In the case of `CC(NC1=CC(=O)c2cccnc2C1=O)C(O)c1ccccc1` (stereo not drawn), the GI50 (OVCAR-8) was 2.92 µM (inactive), the GI50 (DU-145) was 1.6 µM (inactive) and the GI50 (MDA-MB-231) was 2.52 µM (inactive). The GI50 (RXF 393) was 2.71 µM (inactive), the GI50 (HCC 2998) was 3.1 µM (inactive) and the GI50 (SR) was 2.86 µM (inactive). The GI50 (OVCAR-5) was 1.79 µM (inactive), the GI50 (TK-10) was 14.8 µM (inactive) and the GI50 (M14) was 1.5 µM (inactive). For the same molecule, the GI50 (SNB-75) was 1.35 µM (inactive), the GI50 (A498) was 3.62 µM (inactive) and the GI50 (MDA-N) was 0.57 µM (active). For the same molecule, the GI50 (UACC-257) was 1.23 µM (inactive), the GI50 (HCT-15) was 1.37 µM and the GI50 (ACHN) was 2.05 µM (inactive). For the same molecule, the GI50 (IGROV-1) was 1.28 µM (inactive), the GI50 (MOLT-4) was 4.12 µM (inactive) and the GI50 (SN12C) was 1.38 µM (inactive). The GI50 (UO-31) was 2.15 µM (inactive), the GI50 (SK-MEL-28) was 1.62 µM (inactive) and the GI50 (SK-MEL-2) was 1.5 µM (inactive). The GI50 (HL-60) was 1.85 µM (inactive), the GI50 (Hs-578T) was 2.53 µM (inactive) and the GI50 (NCI-H226) was 1.96 µM (inactive). The GI50 (NCI-H23) was 1.06 µM (active), the GI50 (Malme-3M) was 1.48 µM (inactive) and the GI50 (HOP-62) was 1.26 µM (inactive). The GI50 (NCI/ADR-RES) was 3.63 µM (inactive), the GI50 (HOP-92) was 9.73 µM (inactive) and the GI50 (786-0) was 2.79 µM (inactive). The GI50 (BT-549) was 1.45 µM (inactive), the GI50 (SK-OV-3) was 2.92 µM (inactive) and the GI50 (PC-3) was 1.65 µM (inactive). For the same molecule, the GI50 (NCI-H522) was 1.42 µM (inactive), the GI50 (T47D) was 2.87 µM (inactive) and the GI50 (SW-620) was 1.66 µM (inactive). The GI50 (LOX IMVI) was 0.942 µM (active), the GI50 (CCRF-CEM) was 4.02 µM (inactive) and the GI50 (SF-539) was 1.84 µM (inactive). For the same molecule, the GI50 (CAKI-1) was 1.32 µM (inactive), the GI50 (SNB-19) was 2.08 µM (inactive) and the GI50 (K562) was 2.23 µM (inactive). The GI50 (OVCAR-3) was 1.64 µM (inactive), the GI50 (EKVX) was 6.04 µM (inactive) and the GI50 (HT-29) was 2.86 µM (inactive). The GI50 (SF-295) was 1.28 µM (inactive), the GI50 (MDA-MB-435) was 0.783 µM (active) and the GI50 (RPMI-8226) was 2.09 µM (inactive). The GI50 (KM12) was 3.97 µM (inactive), the GI50 (NCI-H460) was 0.733 µM (active) and the GI50 (COLO 205) was 1.86 µM (inactive). The GI50 (SK-MEL-5) was 1.09 µM (active), the GI50 (MCF7) was 1.35 µM (inactive) and the GI50 (UACC-62) was 1.65 µM (inactive). The GI50 (OVCAR-4) was 2.94 µM (inactive), the GI50 (SF-268) was 2.36 µM (inactive) and the GI50 (U-251) was 2.78 µM (inactive). For the same molecule, the GI50 (HCT-116) was 2.22 µM (inactive) and the GI50 (A549) was 1.9 µM (inactive).
